These results are taken from patent US20240400551A1, “NEK7 INHIBITORS” (HALIA THERAPEUTICS, INC., priority 2021, published 2024).

Molecules are shown by their SMILES.

In this assay the test system is IL-1β release from THP-1 cells. Kind of assay: IL-1β release assay. The note with it: Homo sapiens; PMA-treated THP-1 cells, 250 ng/mL LPS then 20 μM nigericin; cleaved IL-1β in media. It is filed as cell-based. The procedure:
Approximately 1.5 million THP-1 cells were plated in each well of a 6-well TC plate and incubated with 40 nM PMA in RPMI (10% FBS, 1% Penstrep) for 24 hours. The media was then removed and cells were rested in RPMI (10% FBS, 1% Penstrep) for 24 hours after which time the media was removed and cells were pre-treated for 2 hours with various concentrations of compounds of interest (typically serial 3-fold dilution in RPMI+5% FBS, concentrations ranging from 1 μM to 0.5 nM) in RPMI (5% FBS). The media was again removed and cells were incubated with 250 ng/mL LPS and compounds of interest (concentrations as above) in RMPI (5% FBS) for 2 hours. The media was removed for a last time and cells were incubated with 20 μM nigericin and compounds of interest (concentrations as above) in Opti-MEM for 30 minutes. Cell media was then collected and the amount of cleaved IL-1β was determined using a JESS instrument (Protein Simple) and standard protocols. Cleaved Il-1β antibody was obtained from Cell Signaling (catalogue #83186S) and was used at 1:20 dilution in antibody diluent 2. Protein Simple 1× anti-Rabbit HRP secondary antibody was used along with Protein Simple luminol and peroxide for chemiluminescent detection. Primary antibody incubation time was increased from 30 minutes to 60 minutes.

For `O=C(Nc1ccc(Oc2ccnc3[nH]cc(Cl)c23)cc1F)Nc1cc(C2CC2)nn1-c1ccccc1` [Compound I-11, 1-(4-((3-chloro-1H-pyrrolo[2,3-b]pyridin-4-yl)oxy)-2-fluorophenyl)-3-(3-cyclopropyl-1-phenyl-1H-pyrazol-5-yl)urea], the IC50 (as a rule, the concentration that gives 50% inhibition) is greater than 1000 nM.
